Reference: PubChem BioAssay (NCI)
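48-hour exposure; five concentrations; linearly interpolated endpoints. GI50 marks 50% less growth. The concentration for full growth arrest is given as TGI.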

Key:
Experiment in all cases: NCI tumour cell line growth inhibition, 48 h
HOP-18 NSCLC = system: HOP-18 NSCLC
P388 leukemia = system: P388 leukemia
DMS 273 small cell lung = system: DMS 273 small cell lung
KM20L2 colon = system: KM20L2 colon
MDA-N = system: MDA-N
XF 498 CNS = system: XF 498 CNS
M19-MEL melanoma = system: M19-MEL melanoma
DLD-1 colon = system: DLD-1 colon
LXFL 529 NSCLC = system: LXFL 529 NSCLC
RXF-631 renal = system: RXF-631 renal

Structure (SMILES)	TGI (HOP-18 NSCLC)	TGI (DMS 273 small cell lung)	TGI (KM20L2 colon)	TGI (MDA-N)	TGI (XF 498 CNS)	TGI (M19-MEL melanoma)	TGI (DLD-1 colon)	TGI (LXFL 529 NSCLC)	other results
C[CH2][Ge]1([CH2]C)[CH2]CC2(CCN(CCCN(C)C)C2)C[CH2]1	8.25 µM	4.57 µM	11 µM	1.02 µM	1.45 µM	2.63 µM	–	–	GI50 (HOP-18 NSCLC): 3.19 µM; GI50 (P388 leukemia): 1.34 µM; TGI (P388 leukemia): 2.7 µM; GI50 (DMS 273 small cell lung): 2.4 µM; GI50 (KM20L2 colon): 2.94 µM; GI50 (MDA-N): 0.369 µM; GI50 (XF 498 CNS): 1.16 µM; GI50 (M19-MEL melanoma): 1.47 µM
C/C=C\C(C)=C/C(C)C(=O)CC(O)CC1CC(=O)NC(=O)C1 (stereo not drawn)	–	–	–	> 100 µM	–	–	–	–	–
CCCC1C2=C(C(=O)OC2=O)C2C(CC)CC3=C(C(=O)OC3=O)C12 (stereo not drawn)	–	–	–	> 100 µM	–	–	–	–	–
CC(=O)OC12CCCCC1C1(CCCC1)NC2=O (stereo not drawn)	> 100 µM	–	> 100 µM	–	> 100 µM	> 100 µM	> 100 µM	> 100 µM	–
Cc1ccc(S(=O)(=O)c2ccccn2)cc1	> 100 µM	> 100 µM	> 100 µM	–	> 100 µM	> 100 µM	> 100 µM	> 100 µM	TGI (RXF-631 renal): > 100 µM
Nc1n[nH]c(=O)c2c1c(Br)cn2C1OC(CO)C(O)C1O (stereo not drawn)	65.6 µM	> 41.2 µM	> 100 µM	–	–	40.2 µM	> 25.3 µM	> 100 µM	TGI (RXF-631 renal): 6.59 µM
O=C(Cc1nc2ccccc2s1)C(=O)Nc1ccccc1C(F)(F)F	> 100 µM	> 100 µM	> 100 µM	–	> 100 µM	> 100 µM	> 100 µM	> 100 µM	–
Cc1ccc(S(=O)(=O)NC2(C=O)CCC(C(C)(C)C)CC2)cc1 (stereo not drawn)	> 100 µM	> 100 µM	75.4 µM	–	> 100 µM	73.8 µM	> 100 µM	> 100 µM	TGI (RXF-631 renal): > 100 µM
Cn1c(N)c(N=Nc2ccc(S(N)(=O)=O)cc2)c(=O)n(C)c1=O	–	–	–	> 100 µM	–	–	–	–	–
Cc1ccc(SCN2CCCCC2)cc1 (tested in a mixture with another compound)	–	–	–	22.7 µM	–	–	–	–	–
COc1ccc2nccc(C3OC(=O)N4CCC(=O)CC34)c2c1 (stereo not drawn)	–	–	> 100 µM	–	> 100 µM	> 100 µM	–	> 100 µM	TGI (RXF-631 renal): > 100 µM
CCc1cccc(C(C)C)c1C1C(=O)C(=O)N(c2nc3ccccc3s2)C(=O)C1=O	> 100 µM	> 100 µM	> 100 µM	–	–	> 100 µM	> 100 µM	> 100 µM	TGI (RXF-631 renal): > 100 µM
O=c1c2ccccc2nc(-c2ccccc2Cl)n1NC1OC(CO)C(O)C(O)C1O (stereo not drawn)	> 100 µM	> 100 µM	> 100 µM	–	> 100 µM	> 100 µM	> 100 µM	> 100 µM	–
S=C(N/N=C/c1ccccc1)NC1CC(c2ccccc2)Oc2ccccc21 (stereo not drawn)	–	> 100 µM	–	–	> 100 µM	> 100 µM	> 100 µM	> 100 µM	–
O=C1OC2C(O)COC2(OCc2c[nH]c3ccccc23)C1O (stereo not drawn) (tested in a mixture with another compound)	> 100 µM	> 100 µM	> 100 µM	–	> 100 µM	> 100 µM	> 100 µM	> 100 µM	–
Cn1c(N)cc(=O)nc1N	–	–	–	> 100 µM	–	–	–	–	–
O=C(CN1C(=O)c2ccccc2C1=O)NC1(C(=O)O)CCCC1	–	–	–	> 100 µM	–	–	–	–	–
COc1ccc(/C=C(\NC(=O)c2ccccc2)c2nc3ccccc3[nH]2)cc1	–	> 100 µM	> 100 µM	–	46.2 µM	> 100 µM	> 100 µM	> 100 µM	–
COC(=O)c1c(OC(=O)c2ccccc2)noc1CC(=O)OC1C=CCCC1 (stereo not drawn)	> 100 µM	> 100 µM	> 100 µM	–	–	–	> 100 µM	> 100 µM	–
COc1cc(C2C(C(=O)Nc3ccc(Cl)c(Cl)c3)=C(C)NC(C)=C2C(=O)Nc2ccc(Cl)c(Cl)c2)ccc1O	–	–	54.7 µM	–	33.1 µM	32 µM	22.4 µM	21.2 µM	–
